From PubChem BioAssay (NCI)
Where “and” joins values, the source holds several entries; their conditions need not be identical. Equal values may be shown once.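 The compound was tested at five concentrations on cells cultured in 96-well plates, with a 48-hour exposure period. GI50: concentration for 50% inhibition of growth. TGI is the concentration that stops growth completely.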

Experiments:
Test in all cases: DTP human tumour cell line panel, 48 h
HOP-62 NSCLC = test system: HOP-62 NSCLC
NCI-H522 lung = test system: NCI-H522 lung
SNB-19 CNS = test system: SNB-19 CNS
RPMI-8226 leukemia = test system: RPMI-8226 leukemia
OVCAR-8 ovarian = test system: OVCAR-8 ovarian
HCT-15 colon = test system: HCT-15 colon
CCRF-CEM leukemia = test system: CCRF-CEM leukemia
HCT-116 colon = test system: HCT-116 colon
UACC-257 melanoma = test system: UACC-257 melanoma
ACHN renal = test system: ACHN renal

| Structure (SMILES) | GI50 (HOP-62 NSCLC) | TGI (HOP-62 NSCLC) [µM] | GI50 (NCI-H522 lung) [µM] | TGI (NCI-H522 lung) [µM] | GI50 (SNB-19 CNS) [µM] | TGI (SNB-19 CNS) [µM] | GI50 (RPMI-8226 leukemia) | TGI (RPMI-8226 leukemia) [µM] | GI50 (OVCAR-8 ovarian) | TGI (OVCAR-8 ovarian) [µM] | GI50 (HCT-15 colon) [µM] | TGI (HCT-15 colon) [µM] | GI50 (CCRF-CEM leukemia) | TGI (CCRF-CEM leukemia) [µM] | GI50 (HCT-116 colon) [µM] | TGI (HCT-116 colon) [µM] | GI50 (UACC-257 melanoma) [µM] | TGI (UACC-257 melanoma) [µM] | GI50 (ACHN renal) [µM] | TGI (ACHN renal) [µM] |
| --- | --- | --- | --- | --- | --- | --- | --- | --- | --- | --- | --- | --- | --- | --- | --- | --- | --- | --- | --- | --- |
| CCCCCCCCSC1=CC(=O)c2nc3ccccc3c3ccnc1c23 | > 100 µM | > 100 | 62.8 | > 100 | > 100 | > 100 | 60.2 µM | > 100 | > 100 µM | > 100 | 38.4 | > 100 | 60.7 µM | > 100 | 43.1 | > 100 | 41.1 | > 100 | 52.2 | > 100 |
| O=C(NCCNc1nccc(-c2c(-c3cccc(O)c3)nc3sccn23)n1)c1ccccc1O | 9.04 µM | 42.1 | 4.24 | 16.9 | 12.6 | > 78.7 | 2.27 µM | 10.8 | 3.14 µM | 25.4 | 4.53 | > 46.8 | 1.21 µM | 19.4 | 3.42 | 14.9 | 0.473 | 11.2 | 3.35 | > 53.4 |
| C=C(CNCCO)[C@@H]1CC[C@]2(CO)CC[C@]3(C)[C@H](CC[C@@H]4[C@@]5(C)CCC(N)C(C)(C)[C@@H]5CC[C@]43C)[C@@H]12 (some centres not stated) | 2.79 µM | 7.36 | 1.93 | 3.7 | 2.27 | 5.23 | 2.03 µM | 4.73 | 1.82 µM | 3.74 | 5.57 | 19 | 2.04 µM | 5.93 | 1.81 | 3.84 | 1.8 | 3.23 | 12.2 | 25 |
| Cc1ccc(-c2nnc(-c3ccc4ccccc4c3)o2)cc1 | – | > 77.4 | – | > 100 | – | > 100 | – | > 100 | – | > 100 | – | > 100 | – | > 25 | – | > 100 | – | > 100 | – | > 100 |
| O=C(Nc1ccc(I)cc1)c1cc([N+](=O)[O-])ccc1O | 16.4 µM | > 100 | 2.92 | 15.9 | 5.5 | > 100 | 2.65 µM | 8.78 | 7.21 µM | 25.8 | 5.77 | 38.9 | 3.69 µM | 50.1 | 6.21 | 31.7 | 6.89 | 34.6 | 9.28 | > 100 |
| COC(=O)[C@@H](C)C[C@H](Cc1ccc(F)cc1)NC(=O)c1csc([C@@H](C[C@H](C(C)C)N(C)C(=O)[C@@H](NC(=O)[C@H]2CCCCN2C)C(C)C)OC(C)=O)n1 | 0.00187 µM and 0.0102 µM | > 16.7 | 0.0002 | 0.00082 | – | > 16.7 | 0.00108 µM and 0.00682 µM | > 16.7 | 0.00256 µM and 0.0116 µM | > 16.7 | – | > 16.7 | 0.000973 µM and 0.00639 µM | > 16.7 | – | 0.225 | > 16.7 | > 16.7 | 0.134 | > 16.7 |
| CCOC(=O)Nc1nc2ccc(OCC)cc2s1 | 39.4 µM | > 100 | 6.49 | > 100 | > 100 | > 100 | 27.1 µM | > 100 | 47.7 µM | > 100 | 5.12 | > 100 | > 100 µM | > 100 | 6.42 | > 100 | > 100 | > 100 | > 100 | > 100 |
